Measured values as given in patent US10517889B2, “Modulators of SMAD7 expression” (Ionis Pharmaceuticals, Inc., priority 2017, dated 2019).
Strand notation (5' to 3'): a small letter for the sugar, then the base; units joined by * are phosphorothioate-linked, units joined directly phosphodiester-linked; [ ] holds rarer units or linkages, { } end groups; capitals alone tell only the bases. k = constrained ethyl (cEt); [5mC] = 5-methylcytosine; d = 2'-deoxy (DNA)

system: human SMAD7 mRNA; test: Antisense inhibition of human SMAD7 mRNA expression in Hep3B cells by 3-10-3 cEt gapmers, 10,000 nM, electroporation (Example 2); type: cell-based; settings: Hep3B cells, electroporation with 10,000 nM antisense oligonucleotide, approximately 24 hours, SMAD7 mRNA by RT-PCR (RTS5062), relative to untreated control cells
Procedure, shortened: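 Hep3B, 20,000 cells/well; electroporation, 10,000 nM ASO; ~24 h. Readout: SMAD7 mRNA by qRT-PCR (RTS5062), RIBOGREEN-normalised; % inhibition vs untreated.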

| Substance | % Inhibition |
| --- | --- |
| 830063 (kT*k[5mC]*k[5mC]*d[5mC]*dT*dA*d[5mC]*d[5mC]*dA*d[5mC]*d[5mC]*d[5mC]*d[5mC]*kT*kG*kT; antisense) [compound 830063] | 37% |
| 830064 (kA*kT*kG*dG*dT*dG*d[5mC]*dT*d[5mC]*dT*dG*d[5mC]*d[5mC]*k[5mC]*kT*kT; antisense) [compound 830064] | 29% |
| 830065 (kA*kA*kT*dG*dG*dT*dG*d[5mC]*dT*d[5mC]*dT*dG*d[5mC]*k[5mC]*k[5mC]*kT; antisense) [compound 830065] | 43% |
| 830066 (kA*kA*kA*dT*dG*dG*dT*dG*d[5mC]*dT*d[5mC]*dT*dG*k[5mC]*k[5mC]*k[5mC]; antisense) [compound 830066] | 37% |
| 830068 (kG*kT*kG*dA*dA*dA*dT*dG*dG*dT*dG*d[5mC]*dT*k[5mC]*kT*kG; antisense) [compound 830068] | 39% |
| 830069 (kA*kA*kG*dG*dT*dA*dA*dG*d[5mC]*d[5mC]*dA*dG*d[5mC]*kT*k[5mC]*k[5mC]; antisense) [compound 830069] | 51% |
| 830070 (kA*kA*kA*dG*dG*dT*dA*dA*dG*d[5mC]*d[5mC]*dA*dG*k[5mC]*kT*k[5mC]; antisense) [compound 830070] | 44% |
| 830071 (kT*k[5mC]*kA*dA*dA*dG*dG*dT*dA*dA*dG*d[5mC]*d[5mC]*kA*kG*k[5mC]; antisense) [compound 830071] | 45% |
| 830072 (kA*kT*k[5mC]*dA*dA*dA*dG*dG*dT*dA*dA*dG*d[5mC]*k[5mC]*kA*kG; antisense) [compound 830072] | 28% |
| 830073 (kT*k[5mC]*kA*dG*dA*dT*d[5mC]*dA*dA*dA*dG*dG*dT*kA*kA*kG; antisense) [compound 830073] | 41% |
| 830074 (k[5mC]*kT*k[5mC]*dA*dG*dA*dT*d[5mC]*dA*dA*dA*dG*dG*kT*kA*kA; antisense) [compound 830074] | 43% |
| 830075 (kT*k[5mC]*kA*dG*dG*dG*dT*dG*dT*d[5mC]*dA*dG*d[5mC]*k[5mC]*k[5mC]*kA; antisense) [compound 830075] | 39% |
| 830076 (k[5mC]*kA*k[5mC]*dA*dT*dT*d[5mC]*dA*dG*dG*dG*dT*dG*kT*k[5mC]*kA; antisense) [compound 830076] | 43% |
| 830077 (k[5mC]*k[5mC]*kA*d[5mC]*dA*dT*dT*d[5mC]*dA*dG*dG*dG*dT*kG*kT*k[5mC]; antisense) [compound 830077] | 37% |
| 830078 (kA*k[5mC]*k[5mC]*dA*d[5mC]*dA*dT*dT*d[5mC]*dA*dG*dG*dG*kT*kG*kT; antisense) [compound 830078] | 0% |
| 830079 (kA*kT*kA*d[5mC]*d[5mC]*d[5mC]*dT*dG*d[5mC]*dA*d[5mC]*dT*dT*kT*k[5mC]*kT; antisense) [compound 830079] | 22% |
| 830080 (kT*kA*kT*dA*d[5mC]*d[5mC]*d[5mC]*dT*dG*d[5mC]*dA*d[5mC]*dT*kT*kT*k[5mC]; antisense) [compound 830080] | 32% |
| 830081 (kG*kT*kG*dT*dA*dT*dA*d[5mC]*d[5mC]*d[5mC]*dT*dG*d[5mC]*kA*k[5mC]*kT; antisense) [compound 830081] | 0% |
| 830082 (kG*kG*kT*dG*dT*dA*dT*dA*d[5mC]*d[5mC]*d[5mC]*dT*dG*k[5mC]*kA*k[5mC]; antisense) [compound 830082] | 34% |
| 830083 (kA*kT*kG*dG*dT*dG*dT*dA*dT*dA*d[5mC]*d[5mC]*d[5mC]*kT*kG*k[5mC]; antisense) [compound 830083] | 54% |
| 830084 (kG*kA*kT*dA*d[5mC]*dA*d[5mC]*dT*dT*dA*dA*dT*d[5mC]*kA*kA*kA; antisense) [compound 830084] | 26% |
| 830085 (k[5mC]*kA*kG*dG*dA*dT*dA*d[5mC]*dA*d[5mC]*dT*dT*dA*kA*kT*k[5mC]; antisense) [compound 830085] | 27% |
| 830086 (kT*kT*kT*dA*d[5mC]*dA*dG*dG*dA*dT*dA*d[5mC]*dA*k[5mC]*kT*kT; antisense) [compound 830086] | 40% |
| 830087 (kT*kT*kT*dT*dA*d[5mC]*dA*dG*dG*dA*dT*dA*d[5mC]*kA*k[5mC]*kT; antisense) [compound 830087] | 35% |
| 830088 (kG*kT*kT*dT*dT*dA*d[5mC]*dA*dG*dG*dA*dT*dA*k[5mC]*kA*k[5mC]; antisense) [compound 830088] | 52% |

| Substance | % Inhibition |
| --- | --- |
| 830089 (kA*kA*kG*dA*d[5mC]*d[5mC]*d[5mC]*dT*dG*dT*dA*dA*dG*k[5mC]*kT*kT; antisense) [compound 830089] | 9% |
| 830090 (kA*kT*kA*d[5mC]*dA*d[5mC]*dA*dA*dG*dA*d[5mC]*d[5mC]*d[5mC]*kT*kG*kT; antisense) [compound 830090] | 10% |
| 830091 (kA*kA*kT*dA*d[5mC]*dA*d[5mC]*dA*dA*dG*dA*d[5mC]*d[5mC]*k[5mC]*kT*kG; antisense) [compound 830091] | 37% |
| 830092 (kA*kT*kT*dA*dG*dT*d[5mC]*d[5mC]*d[5mC]*dA*dT*dG*dA*kA*kA*k[5mC]; antisense) [compound 830092] | 43% |
| 830093 (k[5mC]*kT*k[5mC]*dA*dT*dT*dA*dG*dT*d[5mC]*d[5mC]*d[5mC]*dA*kT*kG*kA; antisense) [compound 830093] | 5% |
| 830094 (kT*k[5mC]*kT*dT*dA*d[5mC]*d[5mC]*dT*dG*dA*dA*dA*dG*k[5mC]*k[5mC]*k[5mC]; antisense) [compound 830094] | 30% |
| 830096 (kA*kA*k[5mC]*dA*dA*d[5mC]*dA*dT*d[5mC]*d[5mC]*dT*dG*dA*kG*k[5mC]*kG; antisense) [compound 830096] | 44% |
| 830098 (kA*kG*kA*d[5mC]*dA*dA*dA*d[5mC]*d[5mC]*dT*dT*d[5mC]*d[5mC]*kG*kA*kA; antisense) [compound 830098] | 37% |
| 830101 (kG*k[5mC]*k[5mC]*d[5mC]*dG*d[5mC]*dT*d[5mC]*dT*d[5mC]*dA*dG*d[5mC]*k[5mC]*kA*kG; antisense) [compound 830101] | 46% |
| 830102 (kA*kG*k[5mC]*d[5mC]*d[5mC]*dG*d[5mC]*dT*d[5mC]*dT*d[5mC]*dA*dG*k[5mC]*k[5mC]*kA; antisense) [compound 830102] | 43% |
| 830103 (kA*kA*kG*d[5mC]*d[5mC]*d[5mC]*dG*d[5mC]*dT*d[5mC]*dT*d[5mC]*dA*kG*k[5mC]*k[5mC]; antisense) [compound 830103] | 39% |
| 830104 (kT*kA*kA*dG*d[5mC]*d[5mC]*d[5mC]*dG*d[5mC]*dT*d[5mC]*dT*d[5mC]*kA*kG*k[5mC]; antisense) [compound 830104] | 28% |
| 830105 (kT*kT*kA*dA*dG*d[5mC]*d[5mC]*d[5mC]*dG*d[5mC]*dT*d[5mC]*dT*k[5mC]*kA*kG; antisense) [compound 830105] | 48% |
| 830106 (k[5mC]*kA*kT*dT*dA*dA*dG*d[5mC]*d[5mC]*d[5mC]*dG*d[5mC]*dT*k[5mC]*kT*k[5mC]; antisense) [compound 830106] | 33% |
| 830107 (kT*k[5mC]*kA*dT*dT*dA*dA*dG*d[5mC]*d[5mC]*d[5mC]*dG*d[5mC]*kT*k[5mC]*kT; antisense) [compound 830107] | 50% |
| 830108 (kT*kT*k[5mC]*dA*dT*dT*dA*dA*dG*d[5mC]*d[5mC]*d[5mC]*dG*k[5mC]*kT*k[5mC]; antisense) [compound 830108] | 54% |
| 830109 (kA*kT*kT*d[5mC]*dA*dT*dT*dA*dA*dG*d[5mC]*d[5mC]*d[5mC]*kG*k[5mC]*kT; antisense) [compound 830109] | 44% |
| 830110 (k[5mC]*k[5mC]*kA*dT*dT*d[5mC]*dA*dT*dT*dA*dA*dG*d[5mC]*k[5mC]*k[5mC]*kG; antisense) [compound 830110] | 36% |
| 830111 (k[5mC]*k[5mC]*k[5mC]*dA*dT*dT*d[5mC]*dA*dT*dT*dA*dA*dG*k[5mC]*k[5mC]*k[5mC]; antisense) [compound 830111] | 38% |
| 830112 (kG*k[5mC]*k[5mC]*d[5mC]*d[5mC]*dA*dT*dT*d[5mC]*dA*dT*dT*dA*kA*kG*k[5mC]; antisense) [compound 830112] | 23% |
| 830113 (kA*kG*k[5mC]*d[5mC]*d[5mC]*d[5mC]*dA*dT*dT*d[5mC]*dA*dT*dT*kA*kA*kG; antisense) [compound 830113] | 36% |
| 830114 (kG*kA*kG*d[5mC]*d[5mC]*d[5mC]*d[5mC]*dA*dT*dT*d[5mC]*dA*dT*kT*kA*kA; antisense) [compound 830114] | 22% |
| 830115 (kA*k[5mC]*k[5mC]*d[5mC]*dT*dA*dA*dA*d[5mC]*dT*dG*dA*dG*k[5mC]*k[5mC]*k[5mC]; antisense) [compound 830115] | 9% |
| 830116 (k[5mC]*kA*k[5mC]*d[5mC]*d[5mC]*dT*dA*dA*dA*d[5mC]*dT*dG*dA*kG*k[5mC]*k[5mC]; antisense) [compound 830116] | 11% |
